Data from patent US4459294A, “Phosphoric and thiophosphoric esters of 5(3)-hydroxypyrazoles exerting an insecticidal action” (priority 1977, dated 1984).

Tests used:
Macrosiphum euphorbiae = test: Biological activity on Macrosiphum euphorbiae (aphides); assay type: in vivo; parameters: tested at 0.01 permill; conditions: 0.01 permill.; 24 hours after treatment
Experimental: Biological activity on Macrosiphum euphorbiae (aphides)
Small potato plants grown in pots were infested with adult female aphides and, after several hours, were sprinkled with an aqueous dispersion of the products under examination.
The percentage death rate was determined 24 hours after treatment (untreated plants=0).

Tetranychus urticae = test: Biological activity on Tetranychus urticae (Acari) adults; assay type: in vivo; conditions: 0.01 permill.; 24 hours after treatment
Experimental: Biological Activity on Tetranychus urticae (Acari) adults
Small bean leaf discs were infected with adult acari and were then sprinkled with an aqueous dispersion of the products under examination. The percentage of mortality was determined 24 hours after the treatment (untreated discs, mortality=0).

Culex pipiens larvae = test: Biological activity on Culex pipiens (diptera) larvae; assay type: in vivo; conditions: 24 hours after treatment, read-out: percentage of reduction of the infestation (percentage death rate), Culex larvae
Experimental: Biological activity on Culex pipiens (diptera) larvae
Into glasses containing an aqueous dispersion of the products under examination, were introduced third and fourth age mosquito larvae. The percentage death rate of the larvae (glasses containing pure water=0) was determined 24 hours after treatment.

Musca domestica = test: Biological activity on Musca domestica (Diptera), topical application; assay type: in vivo; conditions: 0.5 γ/ins, 24 hours after treatment
Experimental: Biological activity on Musca domestica (Diptera)
4-days old adults were treated, by topical application by microsyringe, with an acetonic solution of the products under examination.
The mortality percentage (insects treated with acetone only=0) was determined 24 hours after the treatment.

[1] = system: Leptinatarsa decomlineata; test: Biological activity on Leptinatarsa decomlineata (Coledptera), 4-day old larvae; assay type: in vivo; conditions: 0.1 permill.; 48 hours after treatment
Experimental: Biological activity on Leptinatarsa decomlineata (Coledptera)
Small, pot-grown potato-plants were infested with 4-day old larvae, and then were sprinkled with an aqueous dispersion of the products under examination. The percentage death rate (untreated plants=0) was determined 48 hours after treatment.

Culex pipiens adults = test: Biological activity on Culex pipiens (Diptera): adults; assay type: in vivo; conditions: 0.2 g/m^2, 24 hours after beginning of treatment, read-out: percentage of reduction of the infestation (mortality percentage), Culex ad.
Experimental: Biological activity on Culex pipiens (Diptera): adults
Whatman n°1 paper rectangles were treated uniformly with an acetonic solution of the products under examination. After evaporation of the solvent, each treated paper rectangle was used to line the inside wall of a perspex cylinder (model OMS). The paper-lined perspex cylinder was then closed with a net after having introduced into it 2-3 days old adult females. After one hour from the start of the contact, the insects were transferred into a similar cylinder likewise lined with untreated paper, and were fed with a sugary solution.
The mortality percentage (untreated insects=0) was determined 24 hours after the beginning of the treatment.

Blatta orientalis = test: Biological activity on Blatta orientalis (Ortoptera); assay type: in vivo; conditions: 0.1 g/m^2, 48 hours after start of treatment, read-out: percentage of reduction of the infestation (percentage mortality), Blatta
Experimental: Biological activity on Blatta orientalis (Ortoptera)
The bottom and side walls of glass beakers were treated uniformly with an acetonic solution of the products under examination. After evaporation of the solvent in each beaker, into the same were then introduced ten, 80-100 days old neanides, whereafter they were closed with a lid of metal netting. After 24 hours from the beginning of the treatment, the insects were transferred into untreated glass beakers, and suitably nourished. The percentage mortality (untreated insects=0) was determined 48 hours after the start of the treatment.

Pieris brassicae = test: Biological activity on Pieris brassicae (Lepitoptera), 5-day old larvae; assay type: in vivo; conditions: 0.1 permill.; 48 hours after treatment
Experimental: Biological activity on Pieris brassicae (Lepitoptera)
Cut cauliflower leaves were sprinkled with an aqueous dispersion of the products under examination. After drying, the leaves were infested with 5-day old larvae. The percentage death rate of the larvae (untreated leaves=0) was determined 48 hours after treatment.

Spodoptera littoralis = test: Biological activity on Spodoptera littoralis (Lepidoptera), 5-days old larvae; assay type: in vivo; conditions: 0.1 permill.; 48 hours after treatment
Experimental: Biological activity on Spodoptera littoralis (Lepidoptera)
Cut tobacco leaves were sprinkled with an aqueous dispersion of the products under examination. After drying, the leaves were infested with 5-days old larvae. The percentage mortality of the larvae was determined 48 hours after treatment (untreated leaves, mortality=0).

Meloidogyne incognita = test: Biological activity on Meloidogyne incognita (Nematoda); assay type: in vivo; conditions: 20 ppm; 21 days after transplanting
Experimental: Biological activity on Meloidogyne incognita (Nematoda)
Aliquot parts of a 1:1 mixture of field soil and sand, infested by Nematoda larvae and eggs, were treated by uniformly mixing same with an aqueous dispersion of the products under examination. The soil was then distributed into plastic pots, and after 5 days into each pot there were transplanted 5 tomato plants about 20 cm high. The survey of the results was carried out 21 days after the transplanting, by observing the roots of the plants extracted from the soil in order to ascertain the degree of infestation by counting the galls that have formed on them. The nematocide activity was expressed as a percentage of reduction of the infestation with respect to the witness plant (small plants transplanted into untreated soil, activity=0).

Toxicity by os on rats = conditions: rat, in vivo, po

Row | Compound | percentage of reduction of the infestation (percentage death rate), Macrosiph. E. (Macrosiphum euphorbiae) | percentage of reduction of the infestation (percentage of mortality), Tetran U. (Tetranychus urticae) | mortality at 0.2 ppm (Culex pipiens larvae) | percentage of reduction of the infestation (mortality percentage), Musca d. (Musca domestica) | percentage of reduction of the infestation (percentage death rate), Leptinot D. [1] | mortality at 0.2 g/m2 (Culex pipiens adults) | mortality at 0.1 g/m2 (Blatta orientalis) | percentage of reduction of the infestation (percentage death rate of larvae), Pieris B (Pieris brassicae) | percentage of reduction of the infestation (percentage mortality of larvae), Spodoptera L (Spodoptera littoralis) | percentage of reduction of the infestation, Meloidog. I. (Meloidogyne incognita) | LD50 (Toxicity by os on rats)
1 | CCOP(=S)(OCC)Oc1cc(C=C(Cl)Cl)nn1CCC#N [Compound 9] | 85% | 85% | 100% | 100% | 100% | 0% | 100% | 100% | 100% |  | 
2 | CCn1nc(Cl)cc1OP(=S)(OC)OC [Compound 21] | 100% | 100% | 100% | 100% | 100% | 100% | 100% | 100% | 70% | 100% | 
3 | CCOP(=S)(OCC)Oc1cc(Cl)nn1Cc1ccccc1 [Compound 29] | 60% | 100% | 100% | 100% | 100% | 5% | 100% | 100% | 100% | 59% | 
4 | CCOP(=S)(OCC)Oc1cc(Cl)nn1CCC#N [Compound 7] | 100% | 100% | 100% | 100% | 100% | 70% | 100% | 100% | 100% | 100% | 
5 | CCOP(=S)(OCC)Oc1cc(Cl)nn1CC [Compound 3] | 98% | 100% | 100% | 100% | 100% | 100% | 100% | 100% | 82% | 96% | 
6 | CCOP(=S)(OC)Oc1cc(Cl)n(-c2ccc([N+](=O)[O-])cc2)n1 (stereo not shown) [Compound 51] | 51% | 94% | 100% | 100% | 85% | 0% |  | 100% | 100% | 82% | 
7 | CCOP(=S)(OC)Oc1cc(Cl)nn1CC (stereo not shown) [Compound 24] | 96% | 100% | 100% | 100% | 100% | 100% | 100% | 100% | 90% | 62% | 
8 | CCOP(=S)(NC(C)C)Oc1cc(Cl)nn1C (stereo not shown) [Compound 49] | 81% | 63% | 100% | 100% | 100% | 100% | 100% | 100% | 15% |  | 
9 | CCOP(=S)(OCC)Oc1cc(Cl)n(-c2ccc([N+](=O)[O-])cc2)n1 [Compound 52] | 54% | 96% | 100% | 100% | 37% | 0% | 100% | 100% | 95% | 96% | 
10 | CCOP(=S)(OCC)Oc1cc(Cl)n[nH]1 [Compound 11] |  |  |  |  |  |  |  |  |  |  | 70 mg/kg
11 | CCOP(=S)(OCC)Oc1cc(Cl)nn1-c1ccccc1 [Compound 2] | 40% |  | 100% | 100% | 97% | 100% | 100% | 100% | 100% |  | 33 mg/kg
